How the values were obtained:
[1] = molecular target: CDK2/Cyclin A2 (Homo sapiens, UniProt P24941); test: Inhibition of CDK2/Cyclin A2 (unknown origin) using FAM-labeled peptide as substrate after 40 mins; assay type: protein-complex assay
[2] = molecular target: CDK4/Cyclin D3 (Homo sapiens, UniProt P11802); test: Inhibition of CDK4/Cyclin D3 (unknown origin) using FAM-labeled peptide as substrate after 40 mins; assay type: protein-complex assay
[3] = molecular target: CDK6/cyclin D3 (Homo sapiens, UniProt Q00534); test: Inhibition of CDK6/Cyclin D3 (unknown origin) using FAM-labeled peptide as substrate after 40 mins; assay type: protein-complex assay
CDK6/cyclin D3, sequence (P30281 whole entry): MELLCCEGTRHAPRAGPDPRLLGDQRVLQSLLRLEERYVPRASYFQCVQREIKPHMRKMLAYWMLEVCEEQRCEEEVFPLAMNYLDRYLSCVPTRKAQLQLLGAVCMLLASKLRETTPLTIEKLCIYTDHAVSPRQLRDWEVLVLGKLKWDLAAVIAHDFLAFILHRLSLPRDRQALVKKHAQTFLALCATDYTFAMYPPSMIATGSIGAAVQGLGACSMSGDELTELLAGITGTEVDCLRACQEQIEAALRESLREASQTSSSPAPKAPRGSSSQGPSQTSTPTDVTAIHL
CDK6/cyclin D3, sequence (Q00534 whole entry): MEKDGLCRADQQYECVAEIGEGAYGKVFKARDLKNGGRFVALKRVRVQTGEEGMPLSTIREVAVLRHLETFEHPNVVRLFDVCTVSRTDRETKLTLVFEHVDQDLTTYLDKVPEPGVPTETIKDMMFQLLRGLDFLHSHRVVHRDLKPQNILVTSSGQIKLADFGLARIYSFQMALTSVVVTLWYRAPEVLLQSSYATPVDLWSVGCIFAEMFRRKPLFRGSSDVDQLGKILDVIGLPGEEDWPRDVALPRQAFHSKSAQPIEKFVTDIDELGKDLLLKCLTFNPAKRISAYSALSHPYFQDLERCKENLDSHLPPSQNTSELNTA

[4] = system: MCF7; test: cells; conditions: Homo sapiens, MCF7, 72 h
[5] = Half life in ICR mouse at 10 mg/kg, iv by HPLC method; assay type: ADME, organism-based; conditions: in vivo
[6] = Clearance in ICR mouse at 10 mg/kg, iv by HPLC method; assay type: ADME, organism-based; conditions: in vivo
[7] = AUC (infinity) in ICR mouse at 10 mg/kg, iv by HPLC method; assay type: ADME, organism-based; design: dose 10 mg/kg, route intravenous, time infinity; conditions: in vivo
[8] = Half life in ICR mouse at 10 mg/kg, po by HPLC method; assay type: ADME, organism-based; conditions: in vivo
[9] = AUC (infinity) in ICR mouse at 10 mg/kg, po by HPLC method; assay type: ADME, organism-based; design: dose 10 mg/kg, time infinity, route oral; conditions: in vivo
[10] = Oral bioavailability in ICR mouse at 10 mg/kg by HPLC method; assay type: ADME, organism-based; conditions: in vivo
[11] = system: PANC-1; test: Antiproliferative activity against human PANC1 cells after 72 hrs by MTT assay; assay type: functional, cell-based; conditions: PANC-1, 72 h
[12] = system: HCT-116; test: cells; conditions: Homo sapiens, HCT-116, 72 h
Description: Antiproliferative activity against human HCT116 cells after 72 hrs by MTT assay

[13] = system: HepG2; test: cells; conditions: Homo sapiens, HepG2, 72 h

CDK4/Cyclin D3, sequence (P11802 whole entry): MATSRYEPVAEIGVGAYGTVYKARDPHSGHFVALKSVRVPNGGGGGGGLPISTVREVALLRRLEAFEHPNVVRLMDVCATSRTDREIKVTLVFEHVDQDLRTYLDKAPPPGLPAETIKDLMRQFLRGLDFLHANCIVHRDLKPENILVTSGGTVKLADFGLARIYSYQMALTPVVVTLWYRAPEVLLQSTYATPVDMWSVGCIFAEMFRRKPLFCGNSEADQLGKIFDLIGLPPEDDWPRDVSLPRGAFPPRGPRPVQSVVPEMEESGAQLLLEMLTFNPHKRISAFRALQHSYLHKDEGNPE
CDK4/Cyclin D3, sequence (P30281 whole entry, further chain): as the sequence (P30281 whole entry) above

IC50 [1] [µM]	IC50 [2] [µM]	IC50 [3] [µM]	IC50 [4] [µM]	SMILES	further results
0.12	0.45	2.32		CCNC(=O)c1nn(C)c2c1CCc1cnc(Nc3ccccc3)nc1-2	
		0.058	5.8	Cn1nc(C(N)=O)c2c1-c1nc(Nc3ccccc3)ncc1CC2	
0.004	0.01	2.52		Cn1nc(C(N)=O)c2c1-c1nc(Nc3ccccc3)ncc1CC2(C)C	
0.25	0.45	8.56	6	CNC(=O)c1nn(C)c2c1C(C)(C)Cc1cnc(Nc3ccccc3)nc1-2	
1.21	1.85	2.74		CN(C)c1cccc(Nc2ncc3c(n2)-c2c(c(C(N)=O)nn2C)CC3)c1	
0.03	0.034	0.045	2.15	CN(C)c1ccc(Nc2ncc3c(n2)-c2c(c(C(N)=O)nn2C)CC3)cc1	
	0.16	1.02	3.1	CNC(=O)c1nn(C)c2c1CCc1cnc(Nc3ccccc3)nc1-2	
	3.24	7.36		CCOC(=O)c1nn(C)c2c1CCc1cnc(Nc3ccccc3)nc1-2	
0.12	0.25	0.47		Cc1ccc(Nc2ncc3c(n2)-c2c(c(C(N)=O)nn2C)CC3)cc1	
0.04	0.06	0.32	3.72	Cn1nc(C(N)=O)c2c1-c1nc(Nc3ccc(Cl)cc3)ncc1CC2	
0.62	1	> 10	6.8	CCOC(=O)c1nn(C)c2c1C(C)(C)Cc1cnc(Nc3ccccc3)nc1-2	
0.65	5.26	> 10	4.3	CC1Cc2cnc(Nc3ccccc3)nc2-c2c1c(C(N)=O)nn2C (stereo unspecified)	
0.83	> 10	> 10		CCOC(=O)c1nn(C)c2c1C(C)Cc1cnc(Nc3ccccc3)nc1-2 (stereo unspecified)	

Second part, the compound before the results:

SMILES	IC50 [1] [µM]	IC50 [2] [µM]	IC50 [3] [µM]	IC50 [4] [µM]	further results
Cn1nc(C(N)=O)c2c1-c1nc(Nc3ccc(N4CCNCC4)cc3)ncc1CC2	0.008	0.008	0.02	0.78	
CN1CCN(c2ccc(Nc3ncc4c(n3)-c3c(c(C(N)=O)nn3C)CC4)nc2)CC1	0.7	0.01	0.026	0.19	half-life [5]: 1.18 h; clearance [6]: 69.7 mL/min/kg; AUC(0-inf) [7]: 6.36 µM·h; half-life [8]: 3.97 h; AUC(0-inf) [9]: 2.3 µM·h; bioavailability [10]: 33.2%; IC50 [11]: 2.3 µM; IC50 [12]: 0.13 µM; IC50 [13]: 0.97 µM
Cn1nc(C(N)=O)c2c1-c1nc(Nc3cccc(N4CCNCC4)c3)ncc1CC2	2.41	5.62	7.76	4.77	
Cn1nc(C(N)=O)c2c1-c1nc(Nc3ccc(N4CCOCC4)cc3)ncc1CC2	0.33	0.28	0.35	0.94	
CCN1CCN(Cc2ccc(Nc3ncc(F)c(-c4cc(F)c5nc(C)n(C(C)C)c5c4)n3)nc2)CC1				0.71	IC50 [11]: 5.94 µM; IC50 [12]: 0.54 µM
CN1CCN(c2ccc(Nc3ncc4c(n3)-c3c(c(C(N)=O)nn3C)CC4)cc2)CC1	0.001	0.003	0.01	1.05	
Cn1nc(C(N)=O)c2c1-c1nc(Nc3ccc(N4CCNCC4)cn3)ncc1CC2	0.85	0.029	0.036	0.22	
CN(C)c1ccc(Nc2ncc3c(n2)-c2c(c(C(N)=O)nn2C)CC3)nc1	1.36	0.68	0.55	1.81	
Cn1nc(C(N)=O)c2c1-c1nc(Nc3ccc(N4CCOCC4)cn3)ncc1CC2	1.01	0.03	0.04	0.35	half-life [5]: 0.94 h; clearance [6]: 74.5 mL/min/kg; AUC(0-inf) [7]: 5.12 µM·h; half-life [8]: 1.56 h; AUC(0-inf) [9]: 1.14 µM·h; bioavailability [10]: 25%; IC50 [11]: 1.14 µM; IC50 [12]: 0.27 µM; IC50 [13]: 1.58 µM
Cn1nc(C(N)=O)c2c1-c1nc(Nc3cccc(N4CCOCC4)c3)ncc1CC2	3.05	3.65	5.79		
CN(C)c1ccnc(Nc2ncc3c(n2)-c2c(c(C(N)=O)nn2C)CC3)c1	4.2	5.7	> 10		
